Measurements published in PubChem BioAssay AID2060510 (Molecular Pharmacology Branch, DTP, NCI, 2025).

System: 439559-082-T-J2-PDC spheroids viability
Assay: Anticancer human tumor 439559-082-T-J2-PDC patient-derived colon adenocarcinoma cell line growth inhibition [GQUAD]
Conditions: for IC50: curve of first compound; for viability, T/C: stronger effect = lower value
In short: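 Tumor cells were grown as complex spheroids with HUVEC endothelial cells and mesenchymal stem cells as stroma. G-quadruplex stabilizers were combined with targeted agents over half-log dilutions from near the clinical Cmax, or from 10 microM.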

[1] = second compound 0.0316 µM, first compound 0.0316 µM
[2] = second compound 0.0316 µM, first compound 0.1 µM
[3] = second compound 0.0316 µM, first compound 0.316 µM
[4] = second compound 0.0316 µM, first compound 1 µM
[5] = second compound 0.0316 µM, first compound 3.16 µM
[6] = second compound 0.0316 µM, first compound 10 µM
[7] = second compound 0.1 µM, first compound 0.0316 µM
[8] = second compound 0.1 µM, first compound 0.1 µM
[9] = second compound 0.1 µM, first compound 0.316 µM
[10] = second compound 0.1 µM, first compound 1 µM
[11] = second compound 0.1 µM, first compound 3.16 µM
[12] = second compound 0.1 µM, first compound 10 µM
[13] = second compound 0.316 µM, first compound 0.0316 µM
[14] = second compound 0.316 µM, first compound 0.1 µM
[15] = second compound 0.316 µM, first compound 0.316 µM
[16] = second compound 0.316 µM, first compound 1 µM
[17] = second compound 0.316 µM, first compound 3.16 µM
[18] = second compound 0.316 µM, first compound 10 µM
[19] = second compound 1 µM, first compound 0.0316 µM
[20] = second compound 1 µM, first compound 0.1 µM
[21] = second compound 1 µM, first compound 0.316 µM
[22] = second compound 1 µM, first compound 1 µM
[23] = second compound 1 µM, first compound 3.16 µM
[24] = second compound 1 µM, first compound 10 µM
[25] = second compound 3.16 µM, first compound 0.0316 µM
[26] = second compound 3.16 µM, first compound 0.1 µM
[27] = second compound 3.16 µM, first compound 0.316 µM
[28] = second compound 3.16 µM, first compound 1 µM
[29] = second compound 3.16 µM, first compound 3.16 µM
[30] = second compound 3.16 µM, first compound 10 µM
[31] = second compound 10 µM, first compound 0.0316 µM
[32] = second compound 10 µM, first compound 0.1 µM
[33] = second compound 10 µM, first compound 0.316 µM
[34] = second compound 10 µM, first compound 1 µM
[35] = second compound 10 µM, first compound 3.16 µM
[36] = second compound 10 µM, first compound 10 µM
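Note: spheroids exposed to the agents for 7 days before readout.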
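Throughout, for viability, T/C: percent of luminescence signal in DMSO vehicle wells taken as 100% viability.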

How did the IC50 (second compound 0.0316 µM) turn out when CC(C)(O)C1CCC(Nc2ccc3ncc(-c4cccc(C(F)(F)F)c4)n3n2)CC1 (stereo unspecified) + Cc1cnc(CNC(=O)c2c(=O)c3ccc(N4CCCN(C)CC4)nc3n3c2sc2ccccc23)cn1 was run?
Its IC50 is 1680 nM.

What about the IC50 (second compound 0.1 µM) of the same compound?
The IC50 was 1760 nM.

What about the IC50 (second compound 0.316 µM) of the same compound?
The IC50 was 1460 nM.

What about the IC50 (second compound 1 µM) of the same compound?
Its IC50 is 1180 nM.

What about the IC50 (second compound 3.16 µM) of the same compound?
The IC50 was 1020 nM.

And the IC50 (second compound 10 µM)?
The IC50 was 418 nM.

And the viability, T/C [1]?
The viability, T/C was 95.8%.

What about the viability, T/C [2] of the same compound?
The viability, T/C was 96.9%.

And the viability, T/C [3]?
Its viability, T/C is 102%.

And the viability, T/C [4]?
Its viability, T/C is 77.2%.

What about the viability, T/C [5] of the same compound?
Its viability, T/C is 14.2%.

What about the viability, T/C [6] of the same compound?
The viability, T/C was 19.1%.

And the viability, T/C [7]?
The viability, T/C was 94.4%.

What about the viability, T/C [8] of the same compound?
Its viability, T/C is 91.4%.

And the viability, T/C [9]?
The viability, T/C was 98.1%.

What about the viability, T/C [10] of the same compound?
The viability, T/C was 78.8%.

And the viability, T/C [11]?
The viability, T/C was 19.9%.

What about the viability, T/C [12] of the same compound?
The viability, T/C was 9.57%.

And the viability, T/C [13]?
The viability, T/C was 84.9%.

What about the viability, T/C [14] of the same compound?
Its viability, T/C is 86.8%.

What about the viability, T/C [15] of the same compound?
The viability, T/C was 71.3%.

And the viability, T/C [16]?
Its viability, T/C is 67%.

And the viability, T/C [17]?
The viability, T/C was 15.5%.

What about the viability, T/C [18] of the same compound?
The viability, T/C was 14.1%.

And the viability, T/C [19]?
The viability, T/C was 84.5%.

What about the viability, T/C [20] of the same compound?
Its viability, T/C is 72.5%.

What about the viability, T/C [21] of the same compound?
The viability, T/C was 74.5%.

What about the viability, T/C [22] of the same compound?
The viability, T/C was 56.2%.

And the viability, T/C [23]?
Its viability, T/C is 11.7%.

And the viability, T/C [24]?
Its viability, T/C is 12.7%.

And the viability, T/C [25]?
Its viability, T/C is 72.4%.

What about the viability, T/C [26] of the same compound?
The viability, T/C was 72.3%.

And the viability, T/C [27]?
Its viability, T/C is 61%.

And the viability, T/C [28]?
The viability, T/C was 51.2%.

What about the viability, T/C [29] of the same compound?
The viability, T/C was 0.28%.

And the viability, T/C [30]?
The viability, T/C was 0.21%.

And the viability, T/C [31]?
The viability, T/C was 63.3%.

And the viability, T/C [32]?
Its viability, T/C is 56.9%.

And the viability, T/C [33]?
Its viability, T/C is 57.8%.

And the viability, T/C [34]?
The viability, T/C was 25.3%.

And the viability, T/C [35]?
The viability, T/C was 0.24%.

What about the viability, T/C [36] of the same compound?
Its viability, T/C is 0.26%.

Which IC50 (second compound 0.0316 µM) does the source give for CCCS(=O)(=O)Nc1ccc(F)c(C(=O)c2c[nH]c3ncc(-c4ccc(Cl)cc4)cc23)c1F + Cc1cnc(CNC(=O)c2c(=O)c3ccc(N4CCCN(C)CC4)nc3n3c2sc2ccccc23)cn1 here?
Its IC50 is > 10000 nM.

And the IC50 (second compound 0.1 µM)?
Its IC50 is > 10000 nM.

What about the IC50 (second compound 0.316 µM) of the same compound?
Its IC50 is > 10000 nM.

What about the IC50 (second compound 1 µM) of the same compound?
Its IC50 is 9590 nM.

What about the IC50 (second compound 3.16 µM) of the same compound?
Its IC50 is 6530 nM.

What about the IC50 (second compound 10 µM) of the same compound?
Its IC50 is 3760 nM.

What about the viability, T/C [1] of the same compound?
Its viability, T/C is 97.5%.

What about the viability, T/C [2] of the same compound?
The viability, T/C was 103%.

And the viability, T/C [3]?
Its viability, T/C is 103%.

What about the viability, T/C [4] of the same compound?
Its viability, T/C is 101%.

And the viability, T/C [5]?
Its viability, T/C is 101%.

And the viability, T/C [6]?
The viability, T/C was 77.1%.

And the viability, T/C [7]?
The viability, T/C was 96.9%.

What about the viability, T/C [8] of the same compound?
Its viability, T/C is 99.5%.

What about the viability, T/C [9] of the same compound?
The viability, T/C was 99.7%.

And the viability, T/C [10]?
Its viability, T/C is 99.3%.

What about the viability, T/C [11] of the same compound?
Its viability, T/C is 99.1%.

What about the viability, T/C [12] of the same compound?
Its viability, T/C is 53.2%.

What about the viability, T/C [13] of the same compound?
The viability, T/C was 84.4%.

And the viability, T/C [14]?
The viability, T/C was 89.7%.

What about the viability, T/C [15] of the same compound?
Its viability, T/C is 90%.

What about the viability, T/C [16] of the same compound?
Its viability, T/C is 86.1%.

What about the viability, T/C [17] of the same compound?
Its viability, T/C is 88.1%.

And the viability, T/C [18]?
Its viability, T/C is 54%.

What about the viability, T/C [19] of the same compound?
The viability, T/C was 78.4%.

And the viability, T/C [20]?
The viability, T/C was 78.5%.

What about the viability, T/C [21] of the same compound?
Its viability, T/C is 78%.

And the viability, T/C [22]?
The viability, T/C was 78.2%.

What about the viability, T/C [23] of the same compound?
The viability, T/C was 83.8%.

What about the viability, T/C [24] of the same compound?
Its viability, T/C is 48.9%.

And the viability, T/C [25]?
The viability, T/C was 70.9%.

And the viability, T/C [26]?
Its viability, T/C is 71.5%.

And the viability, T/C [27]?
The viability, T/C was 70.8%.

What about the viability, T/C [28] of the same compound?
The viability, T/C was 63.5%.

What about the viability, T/C [29] of the same compound?
Its viability, T/C is 68.1%.

And the viability, T/C [30]?
Its viability, T/C is 39.7%.

What about the viability, T/C [31] of the same compound?
Its viability, T/C is 60.8%.

What about the viability, T/C [32] of the same compound?
Its viability, T/C is 58.6%.

And the viability, T/C [33]?
Its viability, T/C is 70.2%.

What about the viability, T/C [34] of the same compound?
The viability, T/C was 64.5%.

What about the viability, T/C [35] of the same compound?
Its viability, T/C is 57.5%.

What about the viability, T/C [36] of the same compound?
Its viability, T/C is 5.82%.

Which results are given for CC[C@@]1(O)C(=O)OCc2c1cc1n(c2=O)Cc2cc3c(CN(C)C)c(O)ccc3nc2-1 + Cc1cnc(CNC(=O)c2c(=O)c3ccc(N4CCCN(C)CC4)nc3n3c2sc2ccccc23)cn1?
IC50 (second compound 0.0316 µM): > 316 nM; IC50 (second compound 0.1 µM): > 316 nM; IC50 (second compound 0.316 µM): > 316 nM; IC50 (second compound 1 µM): > 316 nM; IC50 (second compound 3.16 µM): > 316 nM; IC50 (second compound 10 µM): > 316 nM; viability, T/C (second compound 0.0316 µM, first compound 0.000999 µM): 98.9%; viability, T/C (second compound 0.0316 µM, first compound 0.00316 µM): 89.6%; viability, T/C (second compound 0.0316 µM, first compound 0.00999 µM): 94.6%; viability, T/C [1]: 88.7%; viability, T/C (second compound 0.0316 µM, first compound 0.0999 µM): 82.4%; viability, T/C [3]: 81.9%; viability, T/C (second compound 0.1 µM, first compound 0.000999 µM): 91.7%; viability, T/C (second compound 0.1 µM, first compound 0.00316 µM): 81.5%; viability, T/C (second compound 0.1 µM, first compound 0.00999 µM): 96.5%; viability, T/C [7]: 95.8%; viability, T/C (second compound 0.1 µM, first compound 0.0999 µM): 83%; viability, T/C [9]: 81.8%; viability, T/C (second compound 0.316 µM, first compound 0.000999 µM): 79.7%; viability, T/C (second compound 0.316 µM, first compound 0.00316 µM): 85.2%; viability, T/C (second compound 0.316 µM, first compound 0.00999 µM): 79.5%; viability, T/C [13]: 75.8%; viability, T/C (second compound 0.316 µM, first compound 0.0999 µM): 83.4%; viability, T/C [15]: 69%; viability, T/C (second compound 1 µM, first compound 0.000999 µM): 73.5%; viability, T/C (second compound 1 µM, first compound 0.00316 µM): 70.3%; viability, T/C (second compound 1 µM, first compound 0.00999 µM): 74.5%; viability, T/C [19]: 79.1%; viability, T/C (second compound 1 µM, first compound 0.0999 µM): 80%; viability, T/C [21]: 67.4%; viability, T/C (second compound 3.16 µM, first compound 0.000999 µM): 71.5%; viability, T/C (second compound 3.16 µM, first compound 0.00316 µM): 72%; viability, T/C (second compound 3.16 µM, first compound 0.00999 µM): 68.6%; viability, T/C [25]: 71.4%; viability, T/C (second compound 3.16 µM, first compound 0.0999 µM): 72.8%; viability, T/C [27]: 66.9%; viability, T/C (second compound 10 µM, first compound 0.000999 µM): 64.3%; viability, T/C (second compound 10 µM, first compound 0.00316 µM): 71.8%; viability, T/C (second compound 10 µM, first compound 0.00999 µM): 66.6%; viability, T/C [31]: 70.7%; viability, T/C (second compound 10 µM, first compound 0.0999 µM): 66.4%; viability, T/C [33]: 61.1%
